Consider 12 molecules from PMC8217266 (Clinical Pharmacology and Therapeutics, 2021).

Some results are limits rather than exact numbers.

Data set [1] has as its system transporters at major organ sites. Description: Prediction of transporter-mediated inhibition / DDI potential. Details: species or system human. Particulars: of 11 transporters; FDA criteria.
The target in the next data set is human MATE2 (Homo sapiens, UniProt Q86VL8). Description: cell-based.
Another data set concerns the target T1, human OAT3 (Homo sapiens, UniProt Q8TCC7).
T1 sequence (Q8TCC7 1-542): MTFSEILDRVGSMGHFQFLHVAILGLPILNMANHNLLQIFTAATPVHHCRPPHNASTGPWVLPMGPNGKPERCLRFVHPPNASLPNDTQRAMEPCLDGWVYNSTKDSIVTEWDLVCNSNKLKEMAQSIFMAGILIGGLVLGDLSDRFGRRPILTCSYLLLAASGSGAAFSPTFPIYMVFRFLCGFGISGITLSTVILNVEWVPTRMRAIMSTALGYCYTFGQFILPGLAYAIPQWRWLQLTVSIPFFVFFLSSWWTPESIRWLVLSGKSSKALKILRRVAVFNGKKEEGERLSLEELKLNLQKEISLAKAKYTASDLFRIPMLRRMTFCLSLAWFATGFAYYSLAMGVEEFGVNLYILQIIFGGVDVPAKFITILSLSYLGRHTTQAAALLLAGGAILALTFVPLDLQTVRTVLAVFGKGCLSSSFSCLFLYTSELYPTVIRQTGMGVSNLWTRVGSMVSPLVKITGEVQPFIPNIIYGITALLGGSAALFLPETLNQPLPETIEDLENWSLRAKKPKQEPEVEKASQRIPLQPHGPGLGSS
The data set is described as follows: cell-based.

The target of another data set is T2, human OAT1 (Homo sapiens, UniProt Q4U2R8).
T2 sequence (Q4U2R8 1-563): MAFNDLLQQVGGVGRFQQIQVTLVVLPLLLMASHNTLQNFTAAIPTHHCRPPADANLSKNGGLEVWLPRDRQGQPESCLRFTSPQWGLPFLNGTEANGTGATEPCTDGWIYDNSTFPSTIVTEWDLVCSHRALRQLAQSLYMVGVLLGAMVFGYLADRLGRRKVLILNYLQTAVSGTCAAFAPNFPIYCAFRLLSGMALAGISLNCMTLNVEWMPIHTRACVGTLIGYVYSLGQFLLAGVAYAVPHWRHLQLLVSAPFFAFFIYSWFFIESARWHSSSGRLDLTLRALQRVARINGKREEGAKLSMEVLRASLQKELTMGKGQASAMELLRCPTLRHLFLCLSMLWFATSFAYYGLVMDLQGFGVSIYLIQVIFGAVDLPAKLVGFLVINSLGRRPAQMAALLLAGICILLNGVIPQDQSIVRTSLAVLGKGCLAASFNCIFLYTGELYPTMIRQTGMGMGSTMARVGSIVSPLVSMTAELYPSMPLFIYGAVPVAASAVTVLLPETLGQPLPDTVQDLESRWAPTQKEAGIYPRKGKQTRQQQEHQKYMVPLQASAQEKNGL
Description: cell-based.

The target in another data set is T3, human MATE1 (Homo sapiens, UniProt Q96FL8).
T3 sequence (Q96FL8 1-570): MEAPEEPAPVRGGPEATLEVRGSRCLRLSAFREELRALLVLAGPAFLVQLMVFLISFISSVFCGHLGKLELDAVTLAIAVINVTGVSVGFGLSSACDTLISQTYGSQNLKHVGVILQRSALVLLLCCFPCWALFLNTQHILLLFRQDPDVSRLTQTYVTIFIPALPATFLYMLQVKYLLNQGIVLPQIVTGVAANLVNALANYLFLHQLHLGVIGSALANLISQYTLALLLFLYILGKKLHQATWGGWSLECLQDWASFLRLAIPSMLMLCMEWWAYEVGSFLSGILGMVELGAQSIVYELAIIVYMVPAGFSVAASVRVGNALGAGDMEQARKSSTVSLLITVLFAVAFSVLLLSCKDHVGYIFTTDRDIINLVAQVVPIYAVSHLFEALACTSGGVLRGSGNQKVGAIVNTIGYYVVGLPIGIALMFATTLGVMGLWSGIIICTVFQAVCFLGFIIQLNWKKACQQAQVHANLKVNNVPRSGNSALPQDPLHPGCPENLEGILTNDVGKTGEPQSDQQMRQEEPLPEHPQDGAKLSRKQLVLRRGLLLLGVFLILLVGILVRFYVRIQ
The data set is described as follows: cell-based.

Another data set has as its target T4, human OCT1 (Homo sapiens, UniProt O15245).
T4 sequence (O15245 1-554): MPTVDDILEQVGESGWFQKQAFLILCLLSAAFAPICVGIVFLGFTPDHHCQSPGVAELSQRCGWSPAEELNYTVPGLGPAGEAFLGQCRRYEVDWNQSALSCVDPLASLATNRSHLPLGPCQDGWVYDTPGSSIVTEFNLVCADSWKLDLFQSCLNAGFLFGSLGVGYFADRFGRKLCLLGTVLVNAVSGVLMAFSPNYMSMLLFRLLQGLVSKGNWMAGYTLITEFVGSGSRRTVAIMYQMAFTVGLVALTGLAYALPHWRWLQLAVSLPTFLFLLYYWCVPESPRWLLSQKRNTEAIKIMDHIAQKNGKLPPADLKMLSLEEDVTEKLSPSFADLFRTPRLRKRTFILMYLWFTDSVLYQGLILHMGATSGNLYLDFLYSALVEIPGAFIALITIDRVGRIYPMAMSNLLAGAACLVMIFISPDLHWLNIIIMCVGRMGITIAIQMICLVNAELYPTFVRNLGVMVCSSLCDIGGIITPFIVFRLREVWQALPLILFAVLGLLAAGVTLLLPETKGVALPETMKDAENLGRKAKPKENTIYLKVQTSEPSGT
The data set is described as follows: cell-based.

The target of a further data set is P-gp (Homo sapiens, UniProt P08183). The data set is described as follows: biochemical.
Chain of P-gp (P08183 whole entry): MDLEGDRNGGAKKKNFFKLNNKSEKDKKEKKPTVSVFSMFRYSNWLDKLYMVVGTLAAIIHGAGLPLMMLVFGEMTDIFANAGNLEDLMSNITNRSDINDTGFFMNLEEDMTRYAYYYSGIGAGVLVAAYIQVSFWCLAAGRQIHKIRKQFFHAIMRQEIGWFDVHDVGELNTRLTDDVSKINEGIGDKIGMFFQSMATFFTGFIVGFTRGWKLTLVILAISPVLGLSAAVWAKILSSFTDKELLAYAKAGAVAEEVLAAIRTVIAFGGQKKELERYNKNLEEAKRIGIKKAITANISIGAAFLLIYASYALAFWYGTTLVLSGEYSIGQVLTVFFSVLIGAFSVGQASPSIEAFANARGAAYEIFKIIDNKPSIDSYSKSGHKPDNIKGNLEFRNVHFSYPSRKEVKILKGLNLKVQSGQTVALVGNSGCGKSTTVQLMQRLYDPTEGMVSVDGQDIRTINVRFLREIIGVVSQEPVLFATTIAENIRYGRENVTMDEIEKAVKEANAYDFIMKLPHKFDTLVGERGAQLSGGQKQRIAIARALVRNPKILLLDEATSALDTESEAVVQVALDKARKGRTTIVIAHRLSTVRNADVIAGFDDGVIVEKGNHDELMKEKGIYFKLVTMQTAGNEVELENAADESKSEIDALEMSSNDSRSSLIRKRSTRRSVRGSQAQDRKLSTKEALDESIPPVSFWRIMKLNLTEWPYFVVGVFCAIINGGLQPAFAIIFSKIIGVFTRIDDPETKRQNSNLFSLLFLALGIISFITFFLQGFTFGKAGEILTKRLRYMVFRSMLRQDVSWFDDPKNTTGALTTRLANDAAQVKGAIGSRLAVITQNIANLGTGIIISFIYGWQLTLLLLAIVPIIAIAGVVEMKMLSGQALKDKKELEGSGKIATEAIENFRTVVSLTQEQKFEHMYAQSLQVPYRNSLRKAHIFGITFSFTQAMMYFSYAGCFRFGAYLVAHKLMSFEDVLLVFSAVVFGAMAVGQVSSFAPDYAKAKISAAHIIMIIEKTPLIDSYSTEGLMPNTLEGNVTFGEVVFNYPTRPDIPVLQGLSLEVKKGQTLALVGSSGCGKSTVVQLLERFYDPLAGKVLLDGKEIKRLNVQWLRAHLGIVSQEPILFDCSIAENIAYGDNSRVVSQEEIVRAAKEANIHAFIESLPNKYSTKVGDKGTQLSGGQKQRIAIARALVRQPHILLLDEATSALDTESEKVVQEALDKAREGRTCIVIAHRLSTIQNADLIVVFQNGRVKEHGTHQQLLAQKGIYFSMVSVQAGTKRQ
The target of a further data set is T5, BCRP (Homo sapiens, UniProt Q9UNQ0).
T5 sequence (Q9UNQ0 1-655): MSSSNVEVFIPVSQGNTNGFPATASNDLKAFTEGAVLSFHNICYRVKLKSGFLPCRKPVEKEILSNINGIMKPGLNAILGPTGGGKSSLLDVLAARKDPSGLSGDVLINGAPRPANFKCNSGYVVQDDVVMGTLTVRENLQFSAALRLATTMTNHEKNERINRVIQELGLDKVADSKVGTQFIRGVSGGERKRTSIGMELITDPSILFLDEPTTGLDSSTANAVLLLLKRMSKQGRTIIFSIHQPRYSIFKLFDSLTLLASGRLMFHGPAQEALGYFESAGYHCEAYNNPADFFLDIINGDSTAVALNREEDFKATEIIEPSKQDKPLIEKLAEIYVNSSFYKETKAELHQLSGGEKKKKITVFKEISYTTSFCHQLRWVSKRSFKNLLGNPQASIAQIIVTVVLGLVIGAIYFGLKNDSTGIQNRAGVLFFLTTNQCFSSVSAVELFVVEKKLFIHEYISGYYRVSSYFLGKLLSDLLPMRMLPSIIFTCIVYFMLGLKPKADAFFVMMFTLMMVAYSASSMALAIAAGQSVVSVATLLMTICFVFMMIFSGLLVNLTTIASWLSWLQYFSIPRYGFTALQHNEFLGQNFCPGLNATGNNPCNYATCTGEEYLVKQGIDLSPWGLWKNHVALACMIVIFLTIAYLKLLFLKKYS
The data set is described as follows: biochemical.

Data set [2] has as its system triglycerides, LDL cholesterol, and total cholesterol, biomarkers of OCT1 activity. The data set is described as follows: UCSF EHR analysis: lipid levels in patients with HIV, on vs off drug. It is filed as in vivo, human.

Chain of human MATE2 (Q86VL8 1-566 isoform Q86VL8-3): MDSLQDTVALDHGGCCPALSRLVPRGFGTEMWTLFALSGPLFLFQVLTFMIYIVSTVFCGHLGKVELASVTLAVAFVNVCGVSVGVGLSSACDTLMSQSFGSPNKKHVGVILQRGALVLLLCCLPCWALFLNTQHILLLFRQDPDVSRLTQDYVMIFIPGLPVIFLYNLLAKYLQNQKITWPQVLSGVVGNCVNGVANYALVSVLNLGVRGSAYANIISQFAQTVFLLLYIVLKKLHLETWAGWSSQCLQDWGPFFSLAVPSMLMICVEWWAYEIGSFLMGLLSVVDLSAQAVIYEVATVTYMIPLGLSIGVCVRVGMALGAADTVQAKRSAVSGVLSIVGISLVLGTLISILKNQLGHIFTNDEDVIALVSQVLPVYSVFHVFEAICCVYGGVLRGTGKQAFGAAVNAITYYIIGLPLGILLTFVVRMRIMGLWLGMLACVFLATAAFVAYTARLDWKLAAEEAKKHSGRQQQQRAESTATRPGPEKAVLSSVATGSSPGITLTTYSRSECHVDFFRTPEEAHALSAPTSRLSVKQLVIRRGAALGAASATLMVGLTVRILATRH

As to `Cc1cccc(C)c1OCC(=O)N[C@@H](Cc1ccccc1)[C@@H](O)C[C@H](Cc1ccccc1)NC(=O)[C@H](C(C)C)N1CCCNC1=O` [Lopinavir], the “No. of transporters at major organ sites inhibited at clinical concentrations” value in [1] is given as 5. Further, the IC50 – broadly, the concentration needed to halve the response being measured – at human MATE2 is 25.1 ± 9.6 µM; on human OAT3, above 100 µM; at human OAT1, above 100 µM; against human MATE1, 22.5 ± 4 µM; against human OCT1 it was above 100 µM.

`NC(=O)c1ncn([C@@H]2O[C@H](CO)[C@@H](O)[C@H]2O)n1` [Ribavirin]: the IC50 against P-gp was 47 µM; on human MATE2, above 100 µM; against human OAT3, above 100 µM; against human OAT1 it was 99 µM; on human MATE1, above 100 µM; against human OCT1, above 100 µM. Further, on BCRP, the IC50 is above 100 µM. Moreover, in data set [1], the “No. of transporters at major organ sites inhibited at clinical concentrations” value is recorded as 2.

For `CCOC(=O)C1=C[C@@H](OC(CC)CC)[C@H](NC(C)=O)[C@@H](N)C1` [Oseltamivir], the half-inhibitory concentration (IC50) on P-gp is 44 µM; at human MATE2, above 100 µM; against human OAT3, above 100 µM; against human OAT1, 90 µM; on human MATE1, above 100 µM; against human OCT1, above 100 µM. This molecule also returned a 50% inhibitory concentration (IC50) on BCRP above 100 µM. Also, in [1], the “No. of transporters at major organ sites inhibited at clinical concentrations” value is recorded as 1.

Turning to `COc1cc2nc(N3CCN(C(=O)c4ccco4)CC3)nc(N)c2cc1OC` [Prazosin], the IC50 at human MATE2 was 2.4 ± 0.9 µM; against human OAT1 it was above 100 µM; at human OCT1, 1.8 ± 2 µM; against BCRP, above 100 µM.

`CCS(=O)(=O)N1CC(CC#N)(n2cc(-c3ncnc4[nH]ccc34)cn2)C1` [Baricitinib]: the concentration for half-maximal inhibition (IC50) at P-gp was above 50 µM; at human MATE2, 6.7 ± 5.6 µM; at human OAT3, 12.7 ± 5 µM; against human OAT1, above 50 µM; against human MATE1, 36 ± 24 µM; against human OCT1 it was 22.9 ± 18 µM. In addition, at BCRP, the IC50 was above 50 µM.

For the molecule `CN(C)C(=O)COC(=O)Cc1ccc(OC(=O)c2ccc(NC(=N)N)cc2)cc1` [Camostat], the concentration for half-maximal inhibition (IC50) at P-gp is 35 µM; against human MATE2, 2 ± 1.3 µM; against human OAT3, above 100 µM; at human OAT1 it was above 100 µM; against human OCT1, 20.3 ± 21.3 µM; at BCRP, above 100 µM. The “No. of transporters at major organ sites inhibited at clinical concentrations” value in [1] is 1.

As to `CCCCCCCCc1ccc(CCC(N)(CO)CO)cc1` [Fingolimod], the concentration for half-maximal inhibition (IC50) on P-gp was 89 µM; against human MATE2 it was above 100 µM; against human OAT3, above 100 µM; against human OAT1 it was 64 µM; on human MATE1, above 100 µM; on human OCT1 it was above 100 µM. On BCRP, the 50% inhibitory concentration (IC50) was above 100 µM. For the same molecule, in data set [1], the “No. of transporters at major organ sites inhibited at clinical concentrations” value was 0.

In the case of `COc1cc2c(c(OC)c1OC)-c1ccc(OC)c(=O)cc1[C@@H](NC(C)=O)CC2` [Colchicine], the half-maximal inhibitory concentration (IC50) was 42 µM at P-gp; above 100 µM at human MATE2; above 100 µM at human OAT3; above 100 µM on human MATE1; above 100 µM against BCRP.

In the case of `CC(C)c1nc(CN(C)C(=O)N[C@H](C(=O)N[C@@H](Cc2ccccc2)C[C@H](O)[C@H](Cc2ccccc2)NC(=O)OCc2cncs2)C(C)C)cs1` [Ritonavir], the “LDL cholesterol, Average On drug” value in data set [2] (matched 1:1, n=719 each, off drug 99.5, P 0.0033) is on record as 106/99.5 mg/dL. In data set [2] (matched 1:1, n=782 each, off drug 162, P 7.8E-12), the “Triglyceride, Average On drug” value is listed as 252/162 mg/dL. Besides, the “Total cholesterol, Average On drug” value in data set [2] (matched 1:1, n=803 each, off drug 168, P 3.1E-13) is on record as 190/168 mg/dL. The “LDL cholesterol, Median On drug” value in data set [2] (matched 1:1, off drug 96) was 101/96 mg/dL. Also, the “Triglyceride, Median On drug” value in [2] (matched 1:1, off drug 124) is listed as 156/124 mg/dL. In data set [2] (matched 1:1, off drug 165), the “Total cholesterol, Median On drug” value is 182/165 mg/dL.

For the molecule `CCN(CCO)CCCC(C)Nc1ccnc2cc(Cl)ccc12` (stereo not drawn) [Hydroxychloroquine], the IC50 at P-gp is 51.8 ± 20.6 µM; at human MATE2, 0.8 ± 0.1 µM; against human OAT3, above 100 µM; on human OAT1 it was above 100 µM; against human MATE1, 1.9 ± 0.3 µM; at human OCT1, 20 ± 15.9 µM. This molecule displayed an IC50 against BCRP above 100 µM. Further, the “No. of transporters at major organ sites inhibited at clinical concentrations” value in [1] was 4.

For `CCN(CC)CCCC(C)Nc1ccnc2cc(Cl)ccc12` (stereo not drawn) [Chloroquine], the “No. of transporters at major organ sites inhibited at clinical concentrations” value in data set [1] was 4. In addition, the IC50 is 0.7 ± 0.2 µM at human MATE2; above 100 µM against human OAT3; above 100 µM against human OAT1; 0.8 ± 0.8 µM against human MATE1; 10.7 ± 10.4 µM at human OCT1.

Regarding `C[C@@H]1CCN(C(=O)CC#N)C[C@@H]1N(C)c1ncnc2[nH]ccc12` [Tofacitinib], the IC50 at P-gp was above 100 µM; on human MATE2, 68.5 ± 6.2 µM; at human OAT3, 51.6 ± 7 µM; on human OAT1 it was 89 µM; on human MATE1, 1 ± 0.5 µM; against human OCT1 it was 41.4 ± 13 µM. Besides, the IC50 on BCRP is above 100 µM. In addition, the “No. of transporters at major organ sites inhibited at clinical concentrations” value in data set [1] was 1.
